Results on one compound are retold here after BindingDB's records for PubMed 33873056 (California Institute of Technology, 2021).

The target in this assay is Transitional endoplasmic reticulum ATPase (Homo sapiens) (UniProt P55072). Put plainly: Inhibition of p97 (unknown origin) expressed in Escherichia coli BL21 (DE3) preincubated for 10 mins followed by ATP addition measured for 30 to 120 mins by malachite green based assay.

SMILES strings stand for the structures.

Transitional endoplasmic reticulum ATPase (Homo sapiens), sequence (P55072 whole entry, looked up): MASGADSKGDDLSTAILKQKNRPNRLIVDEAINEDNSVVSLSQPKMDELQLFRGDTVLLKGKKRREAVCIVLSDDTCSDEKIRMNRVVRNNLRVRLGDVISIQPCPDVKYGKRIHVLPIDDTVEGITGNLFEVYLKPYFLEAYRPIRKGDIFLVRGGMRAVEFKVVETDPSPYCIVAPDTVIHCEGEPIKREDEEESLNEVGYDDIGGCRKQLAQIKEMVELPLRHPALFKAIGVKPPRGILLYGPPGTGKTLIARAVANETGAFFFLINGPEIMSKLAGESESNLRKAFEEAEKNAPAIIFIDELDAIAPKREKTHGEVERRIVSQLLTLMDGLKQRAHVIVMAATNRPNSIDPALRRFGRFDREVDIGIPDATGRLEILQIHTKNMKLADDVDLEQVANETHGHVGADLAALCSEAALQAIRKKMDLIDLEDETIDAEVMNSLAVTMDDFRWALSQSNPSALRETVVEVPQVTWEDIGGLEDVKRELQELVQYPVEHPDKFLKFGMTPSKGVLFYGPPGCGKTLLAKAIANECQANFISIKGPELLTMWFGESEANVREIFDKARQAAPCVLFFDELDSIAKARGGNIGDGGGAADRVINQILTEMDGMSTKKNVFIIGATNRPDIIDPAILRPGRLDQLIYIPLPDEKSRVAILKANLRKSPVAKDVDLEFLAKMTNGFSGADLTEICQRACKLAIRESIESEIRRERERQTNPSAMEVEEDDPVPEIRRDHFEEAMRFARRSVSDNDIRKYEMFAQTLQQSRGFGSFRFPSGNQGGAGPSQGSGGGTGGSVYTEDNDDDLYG

For `C[C@H]1CCC/C=C/C(=O)c2c(O)cc(O)cc2CC(=O)O1` [DEHYDROCURVULARIN], the half-inhibitory concentration (IC50) (in general, the midpoint of a concentration-inhibition curve) was found to be 15.3 µM.
